Reference: patent US20080132544A1, “Peroxisome Proliferator-Activated Receptor Ligand” (KANEKA CORPORATION, priority 2004, published 2008)

Key:
[1] = target: T1, mouse PPARγ ligand-binding site (GAL4 chimeric protein, pM-mPPARγ) (Mus musculus, UniProt P37238); assay: PPARγ ligand activity (GAL4-PPARγ chimera luciferase reporter assay in CV-1 cells); assay type: cell-based; settings: for PPARγ ligand activity: specific activity relative to untreated control (DMSO = 1.00), CV-1 cells, 24 h
T1 construct: expressed in transfected cells; host or cells: CV-1 cells (African green monkey kidney)
T1 sequence (P37238 174-475 isoform P37238-2): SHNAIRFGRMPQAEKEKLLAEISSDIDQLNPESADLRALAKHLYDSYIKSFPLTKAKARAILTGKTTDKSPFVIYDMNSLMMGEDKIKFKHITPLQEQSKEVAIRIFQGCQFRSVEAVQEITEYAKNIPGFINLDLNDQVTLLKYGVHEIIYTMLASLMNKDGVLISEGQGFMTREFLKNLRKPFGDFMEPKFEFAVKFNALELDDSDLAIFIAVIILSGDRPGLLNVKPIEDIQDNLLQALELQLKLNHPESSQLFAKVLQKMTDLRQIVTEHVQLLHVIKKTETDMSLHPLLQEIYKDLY
Method: CV-1 cells (cultured cells derived from male African green monkey kidney) were seeded at 6×10^3 cells/well into a 96-well culture plate and cultured at 37° C. for 24 hours under 5% CO2 conditions. The medium used was DMEM (Dulbecco's Modified Eagle Medium; GIBCO) containing 10% FBS (fetal bovine serum), 10 ml/L penicillin/streptomycin solution (5000 IU/ml and 5000 μg/ml, respectively; GIBCO), and 37 mg/L ascorbic acid (Wako Pure Chemical Industries, Ltd.). The cells were washed with OPTI-MEM (GIBCO) and then transfected with pM-mPPARγ and 4×UASg-luc by use of Lipofectamine plus (GIBCO). […] The 4×UASg-luc is a reporter plasmid in which four copies of the upstream activating sequence of GAL4 (UASg) are incorporated upstream of a luciferase gene. Approximately 24 hours after transfection, the medium was replaced with a sample-containing medium (n=4), followed by culture for additional 24 hours. The sample dissolved in dimethyl sulfoxide (DMSO) or DMSO used as an untreated control was added at 1/1000 of the volume to the medium. The cells were washed with Ca- and Mg-containing phosphate-buffered saline (PBS+). Then, Luclite (Packard) was added thereto, and the luminescence intensity of luciferase was measured with a TopCount microplate scintillation/luminescence counter (Packard).
pM (plasmid from which PPARγ ligand-binding site gene was removed) was used as a control group instead of the pM-mPPARγ and subjected to measurement in the same way as for the measurement group. The ratio (measurement group/control group) of the average luminescence intensity values (n=4) between the measurement and control groups was calculated for each sample. Specific activity relative to the untreated control was used as the PPARγ ligand activity of the sample.

rats = assay: Toxicity test on coumaperine, oral administration; assay type: in vivo; settings: 2000 mg/kg of body weight
Method: A toxicity test was conducted on the coumaperine of the present invention.
Coumaperine was orally administered at 2000 mg/kg of body weight to rats. […] Thus, the coumaperine was confirmed to have no or exceedingly low toxicity.

Q: Which results are given for `O=C(/C=C/C=C/c1ccc(O)cc1)N1CCCCC1` [Coumaperine, N-5-(4-hydroxyphenyl)-2E,4E-pentadienoyl piperidine]?
A: PPARγ ligand activity, concentration dependence (in words) ([1]; 0.5 to 50 μg/ml, Table 1): concentration-dependent PPARγ ligand activity; PPARγ ligand activity ([1]; concentration added 0.5 μg/ml): 1.05; PPARγ ligand activity ([1]; concentration added 1 μg/ml): 1.07; PPARγ ligand activity ([1]; concentration added 2 μg/ml): 1.24; PPARγ ligand activity ([1]; concentration added 5 μg/ml): 1.78; PPARγ ligand activity ([1]; concentration added 10 μg/ml): 2.07; PPARγ ligand activity ([1]; concentration added 20 μg/ml): 2.53; PPARγ ligand activity ([1]; concentration added 30 μg/ml): 2.38; PPARγ ligand activity ([1]; concentration added 50 μg/ml): 2.44; death cases (rats): no death case was observed; toxic conditions (rats): toxic conditions were not particularly observed
